Measured values as given in US20060014723A1, “Anti-parasitic uses of borinic acid complexes” (priority 2004, published 2006).

Test system: P. Berghei
Assay: In vivo efficacy mouse malaria model
Settings: 1×/day
Description: Test compounds will be compared to chloroquine, artemisinin, mefloquine as follows: NMRI mice, SPF, females, […]
From a donor mouse with approximately 30% parasitemia, heparinized blood is taken and diluted in physiological saline to 10^8 parasitized erythrocytes per mL. An aliquot of 0.2 mL (=2×10^7 parasitized erythrocytes) of this suspension is injected intravenously (i.v.) into experimental groups of 4 mice.
Two-to-four hours post-infection, the experimental groups are treated with a single dose by the subcutaneous or the oral route. The compounds are prepared at an appropriate concentration, as a solution or suspension containing 3% ethanol and 7% Tween 80 or in SSV (standard suspending vehicle): […]
Twenty-four hours after the last treatment ([…]) blood smears from all animals are prepared and stained with Giemsa. Parasitemia is determined microscopically by counting 400 red blood cells (“rbcs”), for low parasitemias (<1%) up to 4,000 rbc's have to be counted. The difference between the mean value of the control group (taken as 100%) and those of the experimental groups is calculated and expressed as % Reduction where: [formula]
Additional smears will be taken on day 5 and day 6; and parasitemia will be determined and the activity calculated. Survival time (in days) is recorded, and the mean survival time is calculated. Adverse effects are recorded. Four mice/compound and a minimum of 12 mice/study (vehicle and positive controls run concurrently) are used.

In the case of `Fc1cccc(B(Oc2cccc3cccnc23)c2ccc(Cl)cc2)c1` [Compound 11, (4-Chlorophenyl)(3-fluorophenyl) borinic acid quinolin-8-yl ester], the “% of Activity” value (4 × 30 mg/kg, s.c.) is reported as 42.46%, the “Mean Survival” value (4 × 30 mg/kg, s.c.) is reported as 19.7 days and the “Parasitized RBC over 100 % of Control” value (4 × 30 mg/kg, s.c.) is reported as 57.54%. For the same compound, the “Parasitized RBC over 100 Mean” value (4 × 30 mg/kg, s.c.) was 14.3, the “% of Activity” value (4 × 100 mg/kg, p.o.) was 58.22% and the “Mean Survival” value (4 × 100 mg/kg, p.o.) was 15.0 days. The “Parasitized RBC over 100 % of Control” value (4 × 100 mg/kg, p.o.) was 41.78% and the “Parasitized RBC over 100 Mean” value (4 × 100 mg/kg, p.o.) was 10.4.
